According to paper PMC9781803, “Phenotypic and Target-Directed Screening Yields New Acaricidal Alternatives for the Control of Ticks” (Molecules, 2022):
Like-named read-outs stand apart in the source and are kept apart here.

How the values were obtained:
[1] = target: R. microplus triosephosphate isomerase (RmTIM) (Rhipicephalus microplus, UniProt A8B3A8); assay: biochemical; conditions: for IC50: RmTIM; for inhibition at 10 µM / inhibition at 100 µM: 1 h incubation, read-out: % Inhibition of Enzymatic Activity of RmTIM
Chain of R. microplus triosephosphate isomerase (RmTIM) (A8B3A8 entry or part of it): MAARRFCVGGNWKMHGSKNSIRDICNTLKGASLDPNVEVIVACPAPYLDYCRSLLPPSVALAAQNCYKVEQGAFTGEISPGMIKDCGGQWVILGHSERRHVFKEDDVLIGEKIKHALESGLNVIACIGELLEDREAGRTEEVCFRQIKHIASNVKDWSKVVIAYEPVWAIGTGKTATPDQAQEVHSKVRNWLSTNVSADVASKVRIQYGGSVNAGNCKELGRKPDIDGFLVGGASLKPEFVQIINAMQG
Description: (§1) R. microplus triosephosphate isomerase (RmTIM) and Homo sapiens triosephosphate isomerase (HsTIM) were expressed in Escherichia coli, and purified as previously described in the literature. Protein concentration was determined by absorbance measurements at 280 nm for RmTIM (ε = 33440 M^−1cm^−1) and HsTIM (ε = 33460 M^−1cm^−1). Enzymatic activity was determined following the reaction of the conversion of glyceraldehyde-3-phosphate to dihydroxyacetone phosphate in a coupled enzyme assay using α-glycerol-phosphate dehydrogenase. The decrease in absorbance at 340 nm was recorded in a multiplate reader Varioskan™ Flash Multimode Reader (Thermo Scientific^TM, Waltham, MA, USA) at 25 °C. The reaction mixture ([…], pH 7.4) contained 100 mM triethanolamine, 10 mM EDTA, 0.2 mM NADH, 1 mM glyceraldehyde-3-phosphate, and 0.9 units of α-glycerol-phosphate dehydrogenase. The reaction was initiated by the addition of 5 ng/mL of the TIM of interest. For the inhibition studies (incubation mixture), TIM was incubated at a concentration of 5 mg/mL in a buffer of pH 7.4 containing 100 mM triethanolamine, 10 mM EDTA, and 10% DMSO at 25 °C for 1 h. The mixture also contained the compounds, dissolved in DMSO, at final concentrations of 10 and 100 μM. After 1 h, 10 μL of the incubation mixture was added to the reaction mixture, to a final volume of 100 μL in a 96-well plate. None of the molecules tested here affected the activity of α-glycerol-phosphate dehydrogenase (checked in situ on the reaction mixture inhibited, with the addition of fresh α-glycerol-phosphate dehydrogenase and running the measurement again). The IC50 value was taken as the concentration of drug needed to reduce the enzymatic activity by 50%, and was analyzed using OriginLab 8.5 Corporation, Northampton, MA, USA, sigmoidal regression (% of enzymatic activity vs. the logarithm of the compound concentration). The tests were performed in triplicate in two independent experiments.

R. microplus = assay: Acaricidal activity on R. microplus (LIT and AIT, overall statement); assay type: in vivo; conditions: LIT 1 mM and AIT 1.5 mM
Description: After immersion, the fully engorged females were lightly dried with absorbent paper. […] The tubes carrying the eggs were closed with hydrophilic cotton, and were returned to the incubator chamber under the same conditions until the eggs hatched. The reproductive efficacy, as well as % control of each compound on R. microplus, was calculated according to published reports. The results were verified in two independent experiments. This assay was performed based on the method of Castro-Janer et al., 2011. […] The tubes were incubated in the same conditions as described above. The larvae were ready for testing after 14 to 21 days from egg-hatching. For the test, the compounds were diluted in DMSO, and were later resuspended in distilled water, always using 15% DMSO of the final solution volume. […] For the immersion procedure, tubes containing the larvae were placed vertically, without the cotton plug, and the larvae were taken with a brush from the top of the tube, ensuring they were viable. A cluster with a diameter of 2 mm of larvae was collected with a brush, and was later immersed in each solution, as well as in both control solutions, for 10 min. After this time, the solutions were drained, and the larvae were placed in 8.5 cm × 7.5 cm Whatman No. 1 filter papers. The filters were folded in the middle of the 8.5 cm side, and closed with 3 bulldog clips, forming packets. These packets were incubated for 24 h, under the same conditions as described previously, and then the percent of mortality was determined, considering it as the % of the control.

[2] = tested on: embryonic cell line BME26; assay: Phenotypic screening on BME26 cell cultures (MTT viability); assay type: cell-based, R. microplus; conditions: for inhibition at 100 µM: read-out: % of Growth Inhibition
Description: The embryonic cell line BME26 from R. microplus (Centro de Biotecnologia, Universidade Federal do Rio Grande do Sul, Porto Alegre, RS, Brazil) was grown as adherent monolayers in a complete medium, as described previously, which consisted of L-15B300 medium supplemented with 5% heat-inactivated Fetal Bovine Serum (FBS) (Gibco Co., Grand Island, NY), 10% Tryptose Phosphate Broth (TPB) (BD), penicillin (100 U/mL), streptomycin ([…], Gibco Co., Grand Island, NY, USA), and 0.1% bovine lipoprotein concentrate (ICN), (pH 7.2). The suspension of embryonic BME26 cells from R. microplus was seeded into 24-well plates (5 × 10^5 cells/well) to a final volume of 500 μL in a complete medium, and allowed to attach. After 24 h incubation at 34 °C, the extracts (100 µg/mL final concentration) and the compounds were added to the final concentrations indicated (1–100 µM), and 0.05% dimethylsulfoxide (DMSO) was used in the negative control wells. After 24 h of treatment, 50 μL of 3-(4,5-dimethylthiazol-2-yl)-2,5-diphenyltetrazolium bromide (MTT) prepared in serum-free medium (5 mg/mL) was added to each well. The media were discarded after 2 additional hours of incubation, and 1 mL of acid-isopropyl alcohol (0.15% HCl in isopropyl alcohol) was added to dissolve the formazan crystals. The mixture was transferred to 1.5 mL tubes, centrifuged at 6000× g for 15 min, and the clear supernatant was collected in new tubes for absorbance measurement at 570 nm using quartz cuvettes in a UVmini-1240 UV–vis spectrophotometer (Shimadzu, Japan). Absorbance values of the control treatment were used for normalization (100% viability). The activity was determined by analysis using OriginLab8.5® sigmoidal regression (% of viable cells compared to the logarithm of the compound concentration). The half-maximal inhibitory concentration (IC50), defined as the drug concentration at which 50% of the cells were viable relative to the control (no drug added), was used as a measurement of activity. These experiments were performed in triplicate for each compound.

[3] = tested on: J774.1 murine macrophages; assay: Cytotoxicity assay on murine macrophages (MTT); assay type: cell-based; conditions: Mus musculus; for IC50: J774.1, 48 h, read-out: IC50 (µM) Mammalian Cells; for EC50: J774.1, cytotoxicity, read-out: EC50 (µM) for Mammalian Cells
Description: J774.1 murine macrophages (ATCC, Rockville, MD, USA) were grown in a DMEM culture medium containing 4 mM L-glutamine, and supplemented with 10% FCS. The cells were seeded into a 96-well plate (5 × 10^4 cells in 200 µL culture medium) and incubated at 37 °C in a 5% CO2 atmosphere for 48 h, to allow cell adhesion before drug testing. Afterward, the cells were exposed for 48 h to the compounds (25–400 μM) or the vehicle (0.4% DMSO), and additional controls (cells in medium) were used in each test. Cell viability was then assessed by measuring the mitochondria-dependent reduction of MTT to formazan: for this, MTT in sterile PBS (0.2% glucose), pH 7.4, was added to the macrophages, to a final concentration of 0.1 mg/mL, and the cells were then incubated at 37 °C for 3 h. After removing the medium, the formazan crystals were dissolved in 180 μL of DMSO and 20 μL of MTT buffer (0.1 M glycine, 0.1 M NaCl, 0.5 mM EDTA, pH 10.5), and the absorbance was measured at 560 nm. The IC50 was defined as the drug concentration at which 50% of the cells were viable, relative to the control (no drug added), and was determined by analysis using OriginLab 8.5 Corporation, Northampton, MA, USA, sigmoidal regression (% of viable cells compared to the logarithm of the compound concentration). The tests were performed in triplicate in two independent experiments.

[4] = tested on: fully engorged females of the Mozo susceptible strain of R. microplus; assay: Adult Immersion Test (AIT); assay type: in vivo; conditions: compounds 1.5 mM, 15 min immersion, 14 days
Description: This essay was performed based on Drummond et al., 1973, as each group of 5 fully engorged females of the Mozo susceptible strain of R. microplus was immersed in 50 mL tubes containing 10 mL of compounds at different concentrations (0.5, 1, 1.5, 2, 3.5 mM) for 15 min in four replicates. Four negative control groups were used (DMSO 10%). After immersion, the fully engorged females were lightly dried with absorbent paper. They were then placed in 100 mm disposable Petri dishes with their respective identification, and immediately incubated at 27 °C in an atmosphere with relative humidity (RH) of 85-90% for 14 days. […] The tubes carrying the eggs were closed with hydrophilic cotton, and were returned to the incubator chamber under the same conditions until the eggs hatched. The reproductive efficacy, as well as % control of each compound on R. microplus, was calculated according to published reports. The results were verified in two independent experiments.

[5] = target: T1, Homo sapiens triosephosphate isomerase (HsTIM) (Homo sapiens, UniProt P60174); assay: Enzymatic activity of TIM, coupled enzyme assay; assay type: biochemical
T1 construct: made in house; host or cells: Escherichia coli
T1 sequence (P60174 whole entry): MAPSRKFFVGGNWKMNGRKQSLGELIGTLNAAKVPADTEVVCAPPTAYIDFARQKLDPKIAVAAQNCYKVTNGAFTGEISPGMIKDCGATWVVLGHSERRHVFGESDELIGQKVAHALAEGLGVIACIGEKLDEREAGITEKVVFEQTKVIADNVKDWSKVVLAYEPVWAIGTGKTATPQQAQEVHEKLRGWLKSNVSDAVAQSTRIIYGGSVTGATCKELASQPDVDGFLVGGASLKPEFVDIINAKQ
Description: as §1

[6] = synthetic compounds at 100 μM, BME26, 24 h
[7] = BME26 cells, 24 h, MTT, read-out: IC50

## CN=C1C=CC(=C(c2ccc(N(C)C)cc2)c2ccc(N(C)C)cc2)C=C1 [compound 1386]
[1]; read-out: IC50
  IC50: < 10 µM
[1]
  inhibition at 10 µM: 100%
R. microplus
  acaricidal activity (in words): did not show reproducible acaricidal activity

## O=C(N/N=C/C=C/c1ccco1)c1cnn(-c2ccccc2)c1 [compound 1366]
[1]
  inhibition at 100 µM: 38%

## COc1ccc(/C=C2\CCCC3C2=NN(c2ccccn2)C3c2ccc(OC)cc2)cc1 (centres unmarked) [Dm97]
[1]
  inhibition at 100 µM: 0%

## Nc1ccc2c(c1)[n+]([O-])c1cc(Br)ccc1[n+]2[O-] [compound 181]
[2]; [6]
  inhibition at 100 µM: 90%
[3]
  IC50: < 25 µM

## C=CCn1c(-c2ccc(Cl)cc2)cs\c1=N/N=C/C=C/c1ccco1 [compound 266]
[2]; [7]
  IC50: > 100 µM
[2]; [6]
  inhibition at 100 µM: 77%
[3]
  IC50: > 50 µM
R. microplus
  acaricidal activity (in words): acaricidal potential against R. microplus similar to Amitraz

## [O-][n+]1c2ccc(O)cc2[n+]([O-])c2cc(Cl)c(Cl)cc21 [compound 183]
[2]; [6]
  inhibition at 100 µM: 62%
[3]
  IC50: < 25 µM

## O=C(Oc1ccccc1)N1CCN(C(=O)Oc2ccccc2)CC1 [compound 715]
[2]; 24 h
  IC50: > 50 µM
  inhibition at 100 µM: 64%

## FC(F)(F)C1=CSC(Nc2ccccc2)N1Cc1ccco1 (centres unmarked) [compound 1385]
[3]
  EC50: > 50 µM
[1]; read-out: IC50
  IC50: < 10 µM
[1]
  inhibition at 10 µM: 89%
R. microplus
  acaricidal activity (in words): did not show reproducible acaricidal activity

## CC(/C=C/C(=O)/C=C/C(C)=C/c1ccco1)=C\c1ccco1 [compound 809]
[2]; [7]
  IC50: > 100 µM
[2]; [6]
  inhibition at 100 µM: 50%
[3]
  IC50: > 50 µM

## O=C(/C=C/c1ccco1)/C=C/c1ccco1 [compound 795]
[2]; [7]
  IC50: 20 ± 3 µM
[2]; [6]
  inhibition at 100 µM: 80%
[3]
  IC50: > 50 µM
[4]
  % of Mortality AIT: 70 ± 7%
R. microplus
  acaricidal activity (in words): acaricidal potential

## O=c1cc(O)n(Cc2ccccc2)c(=S)n1Cc1ccccc1 [compound 1088]
[1]; read-out: IC50
  IC50: > 50 µM

## C(=C\c1ccco1)/C=N/N1CCN(C/C=C/c2ccccc2)CC1 [compound 912]
[2]; [7]
  IC50: > 50 µM
[2]; [6]
  inhibition at 100 µM: 52%
[3]
  IC50: > 50 µM
[4]
  % of Mortality AIT: 30 ± 8%

## Cc1ccc(/C=C/C=N/N2CCN(C/C=C/c3ccccc3)CC2)o1 [compound 903]
[2]; [7]
  IC50: > 50 µM
[2]; [6]
  inhibition at 100 µM: 75%
[3]
  IC50: > 50 µM
[4]
  % of Mortality AIT: 10 ± 1%

## C=CCn1c(-c2ccc(Cl)cc2)cs/c1=N/N=C/c1cccs1 [compound 133]
[2]; [7]
  IC50: > 50 µM
[2]; [6]
  inhibition at 100 µM: 71%
[3]
  IC50: > 50 µM

## CC(/C=N/NC(=[Se])NCCN1CCOCC1)=C\c1ccco1 [compound 1378]
[1]; IC50 (µM)
  IC50: 30 µM
[1]
  inhibition at 100 µM: 77%
[5]
  inhibition at 10 µM: 0%

## O=C1C(Cl)=C(Oc2cccc3ccccc23)C(=O)c2ccccc21 [compound 1408]
[1]; read-out: IC50
  IC50: > 50 µM
[1]
  inhibition at 100 µM: 72%

## COc1cc(/C=C/C(=O)CC(=O)/C=C/c2ccc(O)c(OC)c2)ccc1O [compound 906, curcumin]
[2]; [7]
  IC50: 24 ± 3 µM
[2]; [6]
  inhibition at 100 µM: 95%
[3]
  IC50: < 25 µM
[4]
  % of Mortality AIT: 60 ± 8%
R. microplus
  acaricidal activity (in words): acaricidal potential against R. microplus similar to Amitraz

## COc1ccc(/C=C/c2ccc3no[n+]([O-])c3c2)cc1 [compound 1404]
[3]
  EC50: > 50 µM
[1]; read-out: IC50
  IC50: < 10 µM
[1]
  inhibition at 10 µM: 100%
R. microplus
  acaricidal activity (in words): did not show reproducible acaricidal activity
